Type in all cases: physicochemical
A short description of data set [1]: Mechanical stability, manual grinding for 5 minutes in mortar, XRPD. To be noted: ground manually for 5 minutes, XRPD before and after. The protocol: Solid samples of Form CS3, Form CS5, Form CS6 of ozanimod and Form CS1 of ozanimod hydrochloride were ground manually for 5 minutes in mortar.
Data set [2] is described as follows: Particle size distribution test (laser particle size analyzer, wet process). To be noted: for MV, average particle size calculated by volume: dispersion medium Isopar G; for D10 / D50 (median diameter) / D90: volume distribution, Isopar G. The method, then: The particle size distribution test in the present disclosure is acquired by the S3500 laser particle size analyzer of Microtrac. Microtrac S3500 is equipped with the SDC (Sample Delivery Controller). The test is carried out by wet process, and the dispersion medium is Isopar G The parameters are as follow:
Certain amount of samples of Form CS1, Form CS2, Form CS3, Form CS5, Form CS6 of ozanimod and Form CS1 of ozanimod hydrochloride were taken for particle size distribution test.

Data set [3] is described as follows: Stability assessment in constant temperature and humidity chambers (HPLC purity, XRPD crystalline form). Conditions: for 1 week purity % / 2 week purity % / 4 week purity %: HPLC; for 2 week purity %: 2 weeks; for Change of the crystalline form: XRPD; for Stability, overall conclusion of the storage test: after storage under all conditions tested for the form. The protocol:
Three solid samples of Form CS1 were placed in constant temperature and humidity chambers at 25° C./60% RH, 40° C./75% RH and 60° C./75% RH for 4 weeks. XRPD was used to test the crystalline form at the end of week 4. HPLC was used to measure the chemical purity at the end of week 1, 2, and 4. The XRPD comparison result is shown in FIG. 31 (from top to bottom: XRPD pattern of Form CS1 before and after being stored under 25° C./60% RH, 40° C./75% RH and 60° C./75% RH for 4 weeks), and the results are shown in Table 20.
Four solid samples of Form CS2 were placed in constant temperature and humidity chambers at 25° C./60% RH, 40° C./75% RH and 60° C./75% RH for 4 weeks and 80° C. for 1 week. XRPD was used to test the crystalline form at the end of week 4. HPLC was used to measure the chemical purity at the end of week 1, 2, and 4. The XRPD comparison result is shown in FIG. 32 (from top to bottom: XRPD pattern of Form CS2 before and after being stored under 25° C./60% RH, 40° C./75% RH and 60° C./75% RH for 4 weeks and 80° C. for 1 week), and the results are shown in Table 21.
Three solid samples of Form CS3 were placed in constant temperature and humidity chambers at 25° C./60% RH, 40° C./75% RH and 60° C./75% RH for 4 weeks. XRPD was used to test the crystalline form at the end of week 4. HPLC was used to measure the chemical purity at the end of week 1, 2, and 4. The XRPD comparison pattern is shown in FIG. 33 (from top to bottom: XRPD pattern of Form CS3 before and after being stored under 25° C./60% RH, 40° C./75% RH and 60° C./75% RH for 4 weeks), and the results are shown in Table 22.
Three solid samples of Form CS5 were placed in constant temperature and humidity chambers at 25° C./60% RH, 40° C./75% RH and 60° C./75% RH for 2 weeks. XRPD was used to test the crystalline form at the […]. The XRPD comparison pattern is shown in FIG. 34 (from top to bottom: XRPD pattern of Form CS5 before and after being stored under 25° C./60% RH, 40° C./75% RH and 60° C./75% RH for 2 weeks), and the results are shown in Table 23.
Two samples of Form CS6 were placed in constant temperature and humidity chambers at 25° C./60% RH and 40° C./75% RH for 4 weeks. XRPD was used to test the crystalline form at the end of week 4. HPLC was used to measure the chemical purity at the end of week 1, 2, and 4.The XRPD comparison result is shown in FIG. 35 (from top to bottom: XRPD pattern of Form CS6 before and after being stored under 25° C./60% RH and 40° C./75% RH for 4 weeks), and the results are shown in Table 24.
Four samples of Form CS1 of ozanimod hydrochloride were placed in constant temperature and humidity chambers at 25° C./60% RH, 40° C./75% RH and 60° C./75% RH for 4 weeks and 80° C. for 1 week. XRPD was used to test the crystalline form at the end of week 4. HPLC was used to measure the chemical purity at the end of week 1, 2, and 4. The XRPD comparison pattern is shown in FIG. 36 (from top to bottom: XRPD pattern of ozanimod hydrochloride Form CS1 before and after being stored under 25° C./60% RH, 40° C./75% RH and 60° C./75% RH for 4 weeks and 80° C. for 1 week), and the results are shown in Table 25.

A short description of data set [4]: Hygroscopicity assessment by dynamic vapor sorption (DVS). Conditions: for Weight gain under 80% RH: DVS, 25° C.; for Hygroscopicity class according to the definition of hygroscopicity: Chinese Pharmacopoeia 2015, 25° C., 80% RH. The method, then:
Dynamic Vapor Sorption (DVS) is measured via an SMS (Surface Measurement Systems Ltd.) intrinsic DVS. Typical Parameters for DVS test are as follows:
Gas and flow rate: N2, 200 mL/min
RH range: 0% RH to 95% RH […]
Dynamic vapor sorption (DVS) was applied to test hygroscopicity of Form CS1 of ozanimod hydrochloride with about 10 mg of samples.
Description and definition of hygroscopicity (Chinese Pharmacopoeia 2015 edition appendix Drug hygroscopic test guidelines, test at 25° C.+/−1° C., 80% RH). • deliquescent: Sufficient water is absorbed to form a liquid; • very hygroscopic: Increase in mass is equal to or greater than 15 percent; • hygroscopic: Increase in mass is less than 15 percent and equal to or greater than 2 percent; • slightly hygroscopic: Increase in mass is less than 2 percent and equal to or greater than 0.2 percent. • non hygroscopic or almost non hygroscopic: Increase in mass is less than 0.2 percent.

Data set [5] can be described thus: Solubility assessment of saturated solutions in SGF, FeSSIF and water, measured by HPLC. The protocol:
Form CS1 and Form CS1 of ozanimod hydrochloride were suspended into SGF (Simulated gastric fluids) and FeSSIF (Fed state simulated intestinal fluids, pH=5.0) to obtain saturated solutions. After being equilibrated for 1 h, 4 h and 24 h, concentrations of the saturated solutions were measured by HPLC.
Form CS3 and Form CS5 were suspended into SGF (Simulated gastric fluids) and water, and Form CS2 was suspended into FeSSIF (Fed state simulated intestinal fluids) to obtain saturated solutions. After being equilibrated for 1 h, 4 h and 24 h, concentrations of the saturated solutions were measured by HPLC.

Consider 3 compounds from patent publication US11680050B2, “Crystalline forms of ozanimod and ozanimod hydrochloride, and processes for preparation thereof” (RECEPTOS LLC, priority 2016, dated 2023).

Values after ≈ are worked out from the molar mass of the structure shown.

Consider `CC(C)Oc1ccc(-c2nc(-c3cccc4c3CC[C@@H]4NCCO)no2)cc1C#N` [Form CS6, ozanimod], for which the “Form change under mechanical stress” value in data set [1] was “No form change”. Moreover, in data set [2], the “MV, average particle size calculated by volume” value is 68.91 μm; the D10 amounted to 12.87 μm; the “D50 (median diameter)” value stood at 46.47 μm; the D90 turned out to be 161.7 μm. Moreover, in data set [3] (25° C./60% RH, 1 week), the “1 week purity %” value is recorded as 98.44%. Also, the “2 week purity %” value in data set [3] (25° C./60% RH) came out at 98.21%. In addition, in data set [3] (25° C./60% RH, 4 weeks), the “4 week purity %” value turned out to be 98.27% and the “Change of the crystalline form” value was “No change”. For the same compound, the “1 week purity %” value in data set [3] (40° C./75% RH, 1 week) is listed as 98.47%. Also, the “2 week purity %” value in data set [3] (40° C./75% RH) was 98.33%. For the same compound, in data set [3] (40° C./75% RH, 4 weeks), the “4 week purity %” value came to 97.97% and the “Change of the crystalline form” value is “No change”. Besides, in data set [3], the “Stability, overall conclusion of the storage test” value (from here on “Stability, overall conclusion”) was “good stability”. For the same compound, the “Weight gain under 80% RH” value in data set [4] is listed as 1.68%.

Take `CC(C)Oc1ccc(-c2nc(-c3cccc4c3CC[C@@H]4NCCO)no2)cc1C#N` [Form CS1, ozanimod]: the Solubility in data set [5] (FeSSIF (pH=5.0), 1 h) was determined as 4200 µg/mL (≈ 10.4 mM); in data set [5] (FeSSIF (pH=5.0), 4 h), 7300 µg/mL (≈ 18 mM); in data set [5] (SGF, 1 h) it was 6400 µg/mL (≈ 15.8 mM); in data set [5] (SGF, 4 h), 6300 µg/mL (≈ 15.6 mM); in data set [5] (SGF, 24 h), 5900 µg/mL (≈ 14.6 mM). The solubility at 24 h in data set [5] (fed state simulated intestinal fluid (FeSSIF), pH 5, fessif, thermodynamic from solid, FeSSIF (pH=5.0), 24 h) is 7700 µg/mL (≈ 19 mM). In addition, the “MV, average particle size calculated by volume” value in data set [2] is on record as 22.40 μm. The D10 in data set [2] is given as 3.15 μm. For the same compound, in data set [2], the “D50 (median diameter)” value is reported as 11.20 μm. The same compound gave a D90 in data set [2] of 48.90 μm. Besides, the “1 week purity %” value in data set [3] (25° C./60% RH, 1 week) came to 99.12%; in data set [3] (40° C./75% RH, 1 week) it was 99.16%; in data set [3] (60° C./75% RH, 1 week), 99.26%. The “2 week purity %” value in data set [3] (25° C./60% RH) stood at 99.18%; in data set [3] (40° C./75% RH) it was 99.17%; in data set [3] (60° C./75% RH), 99.13%. Further, the “4 week purity %” value in data set [3] (25° C./60% RH, 4 weeks) was 98.97%; in data set [3] (40° C./75% RH, 4 weeks), 98.92%; in data set [3] (60° C./75% RH, 4 weeks), 98.71%. Besides, the “Change of the crystalline form” value was “No change” in data set [3] (25° C./60% RH, 4 weeks); “No change” in data set [3] (40° C./75% RH, 4 weeks); “No change” in data set [3] (60° C./75% RH, 4 weeks). For the same compound, the “Stability, overall conclusion” value in data set [3] is listed as “good stability”. Also, the “Hygroscopicity class according to the definition of hygroscopicity” value in data set [4] is “slightly hygroscopic (Increase in mass is less than 2 percent and equal to or greater than 0.2 percent)”. Besides, the “Weight gain under 80% RH” value in data set [4] is 0.36%.

Compound `CC(C)Oc1ccc(-c2nc(-c3cccc4c3CC[C@@H]4NCCO)no2)cc1C#N` [Form CS2, ozanimod] yielded a Solubility in data set [5] (FeSSIF (pH=5.0), 1 h) of 2000 µg/mL (≈ 4.94 mM). Besides, the “MV, average particle size calculated by volume” value in data set [2] is 23.24 μm. In data set [2], this compound showed a D10 of 5.78 μm. Also, the “D50 (median diameter)” value in data set [2] is on record as 14.20 μm. The D90 in data set [2] is reported as 42.35 μm. The “1 week purity %” value is 99.85% in data set [3] (25° C./60% RH, 1 week); 99.84% in data set [3] (40° C./75% RH, 1 week); 99.91% in data set [3] (60° C./75% RH, 1 week); 99.71% in data set [3] (80° C., 1 week). Besides, the “2 week purity %” value is on record as 99.63% in data set [3] (25° C./60% RH), 99.78% in data set [3] (40° C./75% RH) and 99.60% in data set [3] (60° C./75% RH). For the same compound, the “4 week purity %” value came out at 99.62% in data set [3] (25° C./60% RH, 4 weeks); 99.55% in data set [3] (40° C./75% RH, 4 weeks); 99.63% in data set [3] (60° C./75% RH, 4 weeks). For the same compound, the “Change of the crystalline form” value is reported as “No change” in data set [3] (25° C./60% RH, 4 weeks); “No change” in data set [3] (40° C./75% RH, 4 weeks); “No change” in data set [3] (60° C./75% RH, 4 weeks); “No change” in data set [3] (80° C., 1 week). Besides, the “Stability, overall conclusion” value in data set [3] was “good stability”. Also, the “Hygroscopicity class according to the definition of hygroscopicity” value in data set [4] was “slightly hygroscopic (Increase in mass is less than 2 percent and equal to or greater than 0.2 percent)”. Also, in data set [4], the “Weight gain under 80% RH” value was 0.25%.
